# Test results taken from patent US20200129499A1, “COMBINATION OF TASQUINIMOD OR A PHARMACEUTICALLY ACCEPTABLE SALT THEREOF AND A PD-1 AND/OR PD-L1 INHIBITOR, FOR USE AS A MEDICAMENT” (ACTIVE BIOTECH AB, priority 2015, published 2020).
# Entries after “also recorded” stand apart in the source; their conditions may differ.
# Assays:
# Assay type in all cases: in vivo, mouse
# [1] = system: MBT-2 tumors; assay: Subcutaneous MBT-2 tumor model, early or established tumors (Examples 3 and 4)
# Method: FIG. 4: Treatment with tasquinimod had no effect on established MBT-2 tumor growth and induced an alteration in the profile of PD-1/PD-L1 axis. (A) Growth curves and (B) tumor weight of MBT-2 tumors treated with tasquinimod at 30 mg/kg (oral gavage, twice daily) after randomization at day 11 post tumor-cell inoculation (n=12). Mice were sacrificed. Tumors were harvested, digested and then subjected to surface staining. (C) PD-L1 expression on myeloid cells treated with vehicle (control) or tasquinimod 30 mg/kg at day 15. (D) Quantitative data of the Median Fluorescence Intensity of PD-L1 gated on infiltrating myeloid cells CD1 1b+ (*, P<0.05; Mann-Whitney test, n=5 mice per group).
# FIG. 5: 106 MBT-2 cells were injected subcutaneously in C3H/HeNRj mice. Animals were treated with Anti-PD-L1 or its isotype (IgG2B) at the dose of 200 μg by intraperitoneal injection. Treatment started at (A) day 1 (Student test; left panel: *, P=0.0223), or (B) day 11 post tumor cell inoculation. […]
# MBT-2 cells (1×106) were injected subcutaneously into the flanks of mice and resulting tumors were allowed to grow for 21 days. Tumors were measured by caliper and tumor volume (mm3) was calculated using the formula=(Width) 2×Length 12. […]
# [2] = system: MBT-2 tumor cells; assay: Survival in orthotopic MBT-2 bladder tumor model; conditions: tasquinimod 30 mg/kg twice a day 21 days; Anti-PD1 10 mg/kg i.p. twice weekly; control 29 days; FIG. 9
# Method: FIG. 9: MBT-2 tumor cells were injected orthotopically into female C3H/HeJ mice. Briefly, after a period of 4-hour of water deprivation, mice were anaesthetized using a mix of Ketamine and Xylazine. A catheter (ref: 381212 24G, BD Insyte) was inserted in the bladder through the urethra and 30 μI 0.1 N HCl was injected for 15 seconds, then replaced by 30 μI 0.1 N NaOH for 15 seconds. MBT-2 tumor cells (2×1 06) were instilled into the bladder for 45 minutes. The treatment was initiated at day 3. Tasquinimod was given at the dose of 30 mg/kg by oral gavage twice a day for 21 consecutive days. Anti-PD1 (clone: RMP1-14) or its isotype control (clone 2A3) was injected by intraperitoneal route at the dose of 10 mg/kg twice weekly for two consecutive weeks (at D4, D7, D11 and D14). The survival of MBT-2 tumor-bearing mice treated with anti-PD1, tasquinimod, the combination, or IgG control are shown in FIG. 9 (n=13). Dunnet-Hsu test was used to compare overall survival between groups.
# [3] = system: PD-1; assay: PD-1 expression level after tasquinimod treatment (data not shown); conditions: established MBT-2 tumors
# [4] = system: MBT-2 tumors; assay: Gene expression profiling (qRT-PCR) in MBT-2 tumors after 10 days of tasquinimod (Example 2); conditions: 30 mg/kg p.o. twice daily from day 10 for 10 days; FIG. 2
# Method: FIG. 2: Gene expression profiling in MBT-2 tumors derived from mice treated with 30 mg/kg p.o. of tasquinimod twice daily from day 10 after tumor inoculation. Tasquinimod treatment was carried out for 10 days. Data are represented as fold change of treated tumors compared to control tumors.
# Mice were treated as described in Example 1. After 10 days of treatment with tasquinimod, i.e. 20 days after tumor inoculation, RNA from tumors was isolated from 100 μηη of OCT-embedded tumor cryosections using Trizol Reagent (Life Technologies). RNA concentration and purity was determined through measurement of A260/A280 ratios with a NanoDrop ND-1000 spectrophotometer. RNA integrity was checked using the Agilent 2100 Bioanalyzer. cDNA was prepared using High-Capacity cDNA Reverse Transcription Kit (LifeTechnologies) following the manufacturer's instructions. Q-PCR was performed with a […] PCR-protocol (95° C. for 10 min, followed by 40 cycles of 95° C. for 15 sec and 60° C. for 1 min) using Taqman gene expression (LifeTechnologies). Expression levels were calculated as normalized ACt expression values between target gene and the two “housekeeping” and Hmbs and Cyclophilin A for Taqman technology. Data were presented as fold induction (2AACt) of treated tumors compared to control tumors. The probes used in the experiments are the following: […]
compound,measurement,setting,value
"COc1cccc2c1c(O)c(C(=O)N(C)c1ccc(C(F)(F)F)cc1)c(=O)n2C [tasquinimod, 4-hydroxy-5-methoxy-N,1-dimethyl-2-oxo-N-[4-(trifluoromethyl)phenyl]-1,2-dihydroquinoline-3-carboxamide]","tumor growth (tumor volume, mean±SEM)","[1]; established tumors, treatment from day 8, FIG. 6B",343±67 mm3
same,tumor growth of established MBT-2 tumors,"[1]; treatment started at tumor volume 50-100 mm3, tasquinimod 30 mg/kg twice daily, Anti-PD-L1 200 μg i.p.",no effect; also recorded: lost its ability to inhibit tumor growth
same,median survival of mice,[2],27 days
same,expression level of PD-1,[3],not changed
same,expression of 11-12b,[4],increase
same,"expression of CD206, a M2 macrophage marker",[4],decrease
same,expression of nos2,[4],increase
same,mRNA expression of Cd274 in the tumor microenvironment,[4],increase
